The record followed here is ChEMBL document CHEMBL3044968, “N-palmitoylethanolamide derivatives: synthesis and studies on anticonvulsant and antidepressant activities” (Med Chem Res, 2011).

Data set [1] deals with Mus musculus. The data set is described as follows: Neurotoxicity in Mus musculus Kunming (mouse) at 30 mg/kg, ip measured after 30 min by rotarod test. Details: dose 30 mg/kg, route intraperitoneal. In kind it is toxicity, organism-based. To be noted: in vivo, 0.5 h.
Data set [2] relates to Mus musculus. As to the kind of experiment: Anticonvulsant activity in Mus musculus Kunming (mouse) assessed as protection against maximal electroshock-induced seizure at 100 mg/kg, ip measured after 30 min. Format: functional, organism-based. On the set-up: dose 100 mg/kg. (In general: Protection in the maximal electroshock model is a classic sign of anticonvulsant action.)

Data set [3] relates to Mus musculus. As to the kind of experiment: Antidepressant activity in Mus musculus Kunming (mouse) assessed as reduction in duration of immobility at 10 mg/kg, ip measured after 30 min by forced swim test. Format: functional. Particulars: 0.5 h, route intraperitoneal.
Data set [4] concerns Mus musculus. As to the kind of experiment: Neurotoxicity in Mus musculus Kunming (mouse) at 300 mg/kg, ip measured after 30 min by rotarod test. In kind it is toxicity, organism-based. Details: dose 300 mg/kg, route intraperitoneal. To be noted: in vivo, 0.5 h.
The subject of data set [5] is Mus musculus. As to the kind of experiment: Anticonvulsant activity in Mus musculus Kunming (mouse) assessed as protection against maximal electroshock-induced seizure at 30 mg/kg, ip measured after 30 min. In kind it is functional, organism-based. Details: dose 30 mg/kg.
Data set [6] deals with Mus musculus. As to the kind of experiment: Anticonvulsant activity in Mus musculus Kunming (mouse) assessed as protection against maximal electroshock-induced seizure at 300 mg/kg, ip measured after 4 hr. Format: functional, organism-based. Details: dose 300 mg/kg.
Data set [7] concerns Mus musculus. The data set is described as follows: Anticonvulsant activity in Mus musculus Kunming (mouse) assessed as protection against maximal electroshock-induced seizure at 300 mg/kg, ip measured after 30 min. Details: dose 300 mg/kg. In kind it is functional, organism-based.
The test system of data set [8] is Mus musculus. The data set is described as follows: Neurotoxicity in Mus musculus Kunming (mouse) at 300 mg/kg, ip measured after 4 hr by rotarod test. In kind it is toxicity, organism-based. On the set-up: dose 300 mg/kg, route intraperitoneal. To be noted: in vivo. (In the rotarod test animals must keep their balance on a rotating rod.)
The subject of data set [9] is Mus musculus. As to the kind of experiment: Neurotoxicity in Mus musculus Kunming (mouse) at 100 mg/kg, ip measured after 4 hr by rotarod test. Format: toxicity, organism-based. On the set-up: dose 100 mg/kg, route intraperitoneal. Particulars: in vivo.
The test system of data set [10] is Mus musculus. As to the kind of experiment: Neurotoxicity in Mus musculus Kunming (mouse) at 30 mg/kg, ip measured after 4 hr by rotarod test. Format: toxicity, organism-based. Details: dose 30 mg/kg, route intraperitoneal. To be noted: in vivo.
Data set [11] relates to Mus musculus. The data set is described as follows: Anticonvulsant activity in Mus musculus Kunming (mouse) assessed as protection against maximal electroshock-induced seizure at 30 mg/kg, ip measured after 4 hr. In kind it is functional, organism-based. On the set-up: dose 30 mg/kg.
Data set [12] deals with Mus musculus. As to the kind of experiment: Neurotoxicity in Mus musculus Kunming (mouse) at 100 mg/kg, ip measured after 30 min by rotarod test. In kind it is toxicity, organism-based. Details: dose 100 mg/kg, route intraperitoneal. Particulars: in vivo, 0.5 h.
The test system of data set [13] is Mus musculus. The data set is described as follows: Anticonvulsant activity in Mus musculus Kunming (mouse) assessed as protection against maximal electroshock-induced seizure at 100 mg/kg, ip measured after 4 hr. In kind it is functional, organism-based. On the set-up: dose 100 mg/kg.

Active and inactive are the calls of the source. The calls are words filed in the database; no cut-off is given here.

For orientation: inhibition in vivo means the percentage by which the read-out fell short of the control. For the molecule `CCCCCCCCCCCCCCCC(=O)N(CCO)CCO`, the Activity entry in the data set on Mus musculus [1], in the data set on Mus musculus [4], with Mus musculus [8], in the data set on Mus musculus [9], with Mus musculus [10] and with Mus musculus [12] was “Non-toxic” in each case. Besides, the outcome in the data set with Mus musculus [2], in the data set on Mus musculus [5], in the data set on Mus musculus [6], in the data set on Mus musculus [7], with Mus musculus [11] and with Mus musculus [13] was inactive. In addition, the inhibition in vivo at 10 mg/kg in the data set on Mus musculus [3] turned out to be 26.3%.
For the molecule `CCCCCCCCCCCCCCCCCC(=O)NCCCO`, the Activity result in the data set with Mus musculus [1], in the data set on Mus musculus [4], with Mus musculus [8], with Mus musculus [9], in the data set on Mus musculus [10] and in the data set on Mus musculus [12] was “Non-toxic” in each case. Also, the outcome with Mus musculus [2], in the data set with Mus musculus [5], in the data set with Mus musculus [6], in the data set on Mus musculus [7], with Mus musculus [11] and in the data set with Mus musculus [13] was inactive. Moreover, the inhibition in vivo at 10 mg/kg in the data set with Mus musculus [3] stood at 14.1%.
Turning to `CCCCCCCCCCCCCCCCCC(=O)N(C)CCO`, the Activity result in the data set with Mus musculus [1], in the data set on Mus musculus [4], in the data set on Mus musculus [8], in the data set on Mus musculus [9], in the data set with Mus musculus [10] and in the data set on Mus musculus [12] was “Non-toxic” throughout. For the same molecule, the result with Mus musculus [2], in the data set on Mus musculus [5], with Mus musculus [6], in the data set with Mus musculus [7], with Mus musculus [11] and in the data set with Mus musculus [13] was inactive. Moreover, in the data set with Mus musculus [3], the inhibition in vivo at 10 mg/kg is 22%.
For `O=C(/C=C/c1ccccc1)NCCCO`, the Activity result with Mus musculus [1] was “Non-toxic”; in the data set on Mus musculus [4], “Toxic”; with Mus musculus [8], “Non-toxic”; with Mus musculus [9], “Non-toxic”; in the data set on Mus musculus [10], “Non-toxic”; in the data set with Mus musculus [12], “Non-toxic”. The outcome with Mus musculus [2], in the data set with Mus musculus [5], in the data set on Mus musculus [6], in the data set on Mus musculus [11] and in the data set with Mus musculus [13] was inactive. For the same molecule, the inhibition in vivo at 10 mg/kg in the data set with Mus musculus [3] is 23.4%.
`CN(CCO)C(=O)/C=C/c1ccccc1`: the Activity result with Mus musculus [1] is “Non-toxic”; in the data set on Mus musculus [4], “Toxic”; in the data set on Mus musculus [8] it was “Non-toxic”; in the data set with Mus musculus [9] it was “Non-toxic”; in the data set on Mus musculus [10] it was “Non-toxic”; with Mus musculus [12], “Non-toxic”. For the same molecule, the inhibition in vivo at 10 mg/kg in the data set with Mus musculus [3] came out at 8.41%. In addition, the result with Mus musculus [5], in the data set with Mus musculus [11] and in the data set on Mus musculus [13] was inactive. Also, the result in the data set with Mus musculus [7] was Active.
Turning to `CNCCC(Oc1ccc(C(F)(F)F)cc1)c1ccccc1` (stereo not given) [FLUOXETINE], the inhibition in vivo at 10 mg/kg in the data set on Mus musculus [3] was found to be 39.4%.
For the molecule `CCCCCCCCCCCCCCCC(=O)N(CC)CC` [HEXADECANOIC ACID DIETHYLAMIDE], the Activity entry in the data set on Mus musculus [1], with Mus musculus [4], with Mus musculus [8], in the data set on Mus musculus [9], in the data set on Mus musculus [10] and in the data set on Mus musculus [12] was “Non-toxic” throughout. The outcome in the data set with Mus musculus [2], in the data set with Mus musculus [5], in the data set on Mus musculus [6], in the data set on Mus musculus [7], with Mus musculus [11] and with Mus musculus [13] was inactive. Moreover, in the data set on Mus musculus [3], the inhibition in vivo at 10 mg/kg stood at 17.3%.
On to `O=C(/C=C/c1ccccc1)NCCO` [IDROCILAMIDE], for which the Activity entry in the data set on Mus musculus [1] was “Non-toxic”; in the data set on Mus musculus [4] it was “Toxic”; in the data set on Mus musculus [8], “Non-toxic”; with Mus musculus [9] it was “Non-toxic”; in the data set with Mus musculus [10], “Non-toxic”; in the data set with Mus musculus [12] it was “Non-toxic”. Besides, the result in the data set on Mus musculus [2], with Mus musculus [5] and in the data set on Mus musculus [7] was Active. Also, in the data set with Mus musculus [3], the inhibition in vivo at 10 mg/kg was found to be 25.9%. Moreover, the result with Mus musculus [6], with Mus musculus [11] and in the data set with Mus musculus [13] was inactive.
With `CCN(CC)C(=O)/C=C/c1ccccc1` [N,N-DIETHYLCINNAMAMIDE], the Activity entry with Mus musculus [1] was “Non-toxic”; in the data set with Mus musculus [4], “Toxic”; in the data set with Mus musculus [8] it was “Non-toxic”; with Mus musculus [9], “Non-toxic”; in the data set on Mus musculus [10] it was “Non-toxic”; in the data set on Mus musculus [12], “Non-toxic”. Moreover, the inhibition in vivo at 10 mg/kg in the data set on Mus musculus [3] is 18.2%. The outcome in the data set on Mus musculus [5] and in the data set with Mus musculus [11] was inactive. Besides, the outcome in the data set on Mus musculus [7] was Active.
Take `CCCCCCCCCCCCCCCCCC(=O)N(CC)CC` [N,N-DIETHYLSTEARAMIDE]: the Activity result in the data set on Mus musculus [1], in the data set on Mus musculus [4], with Mus musculus [8], in the data set on Mus musculus [9], in the data set with Mus musculus [10] and in the data set on Mus musculus [12] was “Non-toxic” each time. In addition, the outcome with Mus musculus [2], with Mus musculus [5], in the data set with Mus musculus [6], with Mus musculus [7], in the data set with Mus musculus [11] and in the data set on Mus musculus [13] was inactive. Also, the inhibition in vivo at 10 mg/kg in the data set on Mus musculus [3] stood at 18.4%.
As to `CN(C)C(=O)/C=C/c1ccccc1` [N,N-DIMETHYLCINNAMAMIDE], the Activity result is recorded as “Non-toxic” in the data set on Mus musculus [1]; “Toxic” in the data set with Mus musculus [4]; “Non-toxic” in the data set with Mus musculus [8]; “Non-toxic” in the data set on Mus musculus [9]; “Non-toxic” in the data set with Mus musculus [10]; “Non-toxic” in the data set on Mus musculus [12]. The inhibition in vivo at 10 mg/kg with Mus musculus [3] amounted to 20%. For the same molecule, the result with Mus musculus [5] and in the data set on Mus musculus [11] was inactive. The outcome in the data set on Mus musculus [7] was Active.
For the molecule `CCCCCCCCCCCCCCCCCC(=O)NCCO` [N-(2-HYDROXYETHYL)STEARAMIDE], the Activity entry in the data set with Mus musculus [1], with Mus musculus [4], in the data set with Mus musculus [8], in the data set with Mus musculus [9], with Mus musculus [10] and in the data set on Mus musculus [12] was “Non-toxic” each time. The outcome in the data set on Mus musculus [2], with Mus musculus [5] and in the data set on Mus musculus [7] was Active. The inhibition in vivo at 10 mg/kg in the data set with Mus musculus [3] stood at 5.65%. Also, the outcome in the data set on Mus musculus [6], with Mus musculus [11] and with Mus musculus [13] was inactive.
Regarding `CCCCCCCCCCCCCCCC(=O)NCCCO` [N-(3-HYDROXYPROPYL)PALMITAMIDE], the Activity entry with Mus musculus [1], in the data set with Mus musculus [4], in the data set with Mus musculus [8], in the data set with Mus musculus [9], in the data set on Mus musculus [10] and in the data set on Mus musculus [12] was “Non-toxic” throughout. Also, the outcome in the data set on Mus musculus [2], in the data set with Mus musculus [5], with Mus musculus [6], in the data set with Mus musculus [7], in the data set with Mus musculus [11] and in the data set with Mus musculus [13] was inactive. Besides, the inhibition in vivo at 10 mg/kg in the data set with Mus musculus [3] came to 22.2%.
Turning to `CCCCCCCCCCCCCCCC(=O)NCCO` [PALMIDROL], the Activity entry with Mus musculus [1], with Mus musculus [4], in the data set on Mus musculus [8], in the data set with Mus musculus [9], in the data set on Mus musculus [10] and with Mus musculus [12] was “Non-toxic” each time. For the same molecule, the outcome in the data set on Mus musculus [2] and with Mus musculus [7] was Active. Further, the inhibition in vivo at 10 mg/kg with Mus musculus [3] is 6.25%. The outcome with Mus musculus [6], with Mus musculus [11] and in the data set with Mus musculus [13] was inactive.
